According to patent US20210045420A1, “SWEETENER AND FLAVOR COMPOSITIONS, METHODS OF MAKING AND METHODS OF USE THEREOF” (EPC Natural Products Co., Ltd., priority 2018, published 2021):
Entries after “also recorded” stand apart in the source; their conditions may differ. Residues, ends and D or L forms follow the SMILES beside them.

Key:
[1] = Sensory evaluation of the samples prepared in Example 50 (Example 52; panel of 4, score 0-5 or +/++/+++); format: in vivo, human; set-up: key to Intensity of Smell: “+” for slight; “++” for moderate; “+++” for very strong
Description: The reaction partner (amino acid, carbohydrate source) were dissolved/suspended in the reaction solvent and transferred into a glass beaker filled with sand pre-heated for at least 30 minutes at the reaction temperature in a drying oven. After the planned reaction time, the vials were transferred into ice water. After cooling to room temperature, sensory analysis and analytical characterization was performed.
For evaluation of the taste profile, the samples were tested by a panel of four people. 1 trained taster tasted independently the samples first. The taster was asked to describe the taste profile and score 0-5 according to the increasing sugar likeness, bitterness, aftertaste and lingering taste profiles. The first taster was allowed to re-taste, and then make notes for the sensory attributes perceived. Afterwards, another 3 tasters tasted and the attributes were noted and discussed openly to find a suitable description. In case that more than 1 taster disagreed with the results, the tasting was repeated. In some sensory test results (above), the taste rating was expressed by “+”, which means the intensity of the factors is shown by three levels. “+” for slight, “++” for moderate and “+++” for very strong.

[2] = Sensory evaluation of GSGs and SGs, thaumatin, NHDC and combinations, Example 255; conditions: combinations of EPCalin (Thaumatin 45%) and NHDC dissolved in water
Description: 4.5 ppm Thaumatin (equivalent to 10 ppm EPCalin) was dissolved in water. Increasing amounts of NHDC (1-5 ppm) were added to the solution and the sensory properties were evaluated.
50 ppm (GSGs and SGs) were dissolved in water. Increasing amounts of NHDC (1-5 ppm) were added to the solution and the sensory properties were evaluated.
50 ppm (GSGs and SGs) and 4.5 ppm Thaumatin (equivalent to 10 ppm EPCalin) were dissolved in water. Increasing amounts of NHDC (1-5 ppm) were added to the solution and the sensory properties were evaluated.
Sweetness intensity was rated on 5-point scale
Sweetness intensity was rated on a 5-point scale

[3] = sweetness depends on the tested concentration compared with sucrose; cited from earlier work
[4] = Assay to test DPPH radical-scavenging activity, Example 65; format: biochemical; conditions: Reb-A with or without amino acids, 100° C., FIG. 49 and FIG. 50
Description: 1 mg 1,1-Diphenyl-2-picrylhydrazyl radical (DPPH)/ml ethanol, dilution to assay concentration were prepared in ethanol (40 μg/mL); Calibration samples were prepared with Ascorbic acid in a concentration of 0-10 μg/mL; as a negative control sample, water was used.
Samples in aqueous solution were used as such or diluted with water.
A 0.1 ml sample (or calibration standard) was mixed with 3.9 ml solution of DPPH (100 μMolar) and reacted while protected from light at room temperature for 30 min. Absorbance was determined at 517 nm against ethanol.
10 mM of amino acid and/or 10 mM sugar were dissolved in 10 ml 0.1 mM KH2PO4-buffer, pH=7.8.
The samples were kept at 100° C. in sealed glass vials (Pyrex 15 ml with screw caps) for 0 (before reaction), 2.5 or 5.0 hours. Thereafter the samples were transferred to an ice water bath and cooled down to room temperature. These samples were diluted 1:10 and used for the test assay for anti-oxidant potential.

[5] = Table 52.2, reaction in 1 ml water + 9 ml Glycerin, 0.67 h, 100° C. (Table 50.2)
[6] = Table 52.5, reaction in 1 ml water + 9 ml Glycerin, 2.0 h, 120° C. (Table 50.5)
[7] = Table 52.3, reaction in 1 ml water + 9 ml Glycerin, 0.67 h, 100° C. (Table 50.3)
[8] = Table 52.1, samples prepared in Example 50

In the case of `C[C@H](N)C(=O)O` [0.1 mMol Ala], the Smell [1, 5] is reported as “Agar” and the Taste [1, 5] is reported as “sweet”.

With `O=C[C@H](O)[C@H]1OC(=O)[C@@H](O)[C@H]1O` [0.1 mMol GlucLac] the “Intensity of Smell” value [1, 6] was “+++”, the Smell [1, 6] was “Burnt sugar” and the Taste [1, 6] was “Bitter”.

For `NCCCC[C@H](N)C(=O)O` [0.1 mMol Lys], the Smell [1, 7] was “Popcorn” and the Taste [1, 7] was “Sweet”.

With `N[C@@H](Cc1ccccc1)C(=O)O` [0.1 mMol Phe] the Smell [1, 5] was “flowery/bloomy,; also recorded: caramel”, the Taste [1, 5] was “sweet” and the “Intensity of Smell” value [1, 6] was “+”. The Smell [1, 6] was “Caramel, burnt” and the Taste [1, 6] was “sweet”.

With `C=C1C[C@@]23CC[C@H]4[C@@](C)(CCC[C@@]4(C)C(=O)O[C@@H]4O[C@H](CO)[C@@H](O)[C@H](O)[C@H]4O)[C@@H]2CC[C@]1(O[C@@H]1O[C@H](CO)[C@@H](O)[C@H](O[C@@H]2O[C@H](CO)[C@@H](O)[C@H](O)[C@H]2O)[C@H]1O[C@@H]1O[C@H](CO)[C@@H](O)[C@H](O)[C@H]1O)C3` [0.05 mMol Reb-A] the Smell [1, 5] was “neutral/unpleasant” and the Taste [1, 5] was “sweet”.

With `COc1ccc(CCC(=O)c2c(O)cc(O[C@@H]3O[C@H](CO)[C@@H](O)[C@H](O)[C@H]3O[C@@H]3O[C@@H](C)[C@H](O)[C@@H](O)[C@H]3O)cc2O)cc1O` [10 ppm NHDC] the Sensory evaluation [2] was “Sweet, steep onset of sweetness, no lingering”.

With `N[C@@H](CCC(=O)O)C(=O)O` [167 mMol Glu] the Smell [1, 8] was “caramel” and the Taste [1, 8] was “Sweet”.

In the case of `COC(=O)[C@H](Cc1ccccc1)NC(=O)[C@@H](N)CC(=O)O` [Aspartame] (H-Asp-Phe-OMe), the “times sweeter than sucrose / sugar” value [3] is listed as 160-200 times.

In the case of `OC[C@@H](O)[C@@H](O)[C@H](O)[C@H](O)CO` [Mannitol], the “times sweeter than sucrose / sugar” value [3] is listed as 0.55-0.65 times.

With `N[C@@H](Cc1ccccc1)C(=O)O` [Phe 60 mMol] the Smell [1, 8] was “flowery/bloomy-caramel” and the Taste [1, 8] was “Sweet”.

In the case of `C=C1C[C@@]23CC[C@H]4[C@@](C)(CCC[C@@]4(C)C(=O)O[C@@H]4O[C@H](CO)[C@@H](O)[C@H](O)[C@H]4O)[C@@H]2CC[C@]1(O[C@@H]1O[C@H](CO)[C@@H](O)[C@H](O[C@@H]2O[C@H](CO)[C@@H](O)[C@H](O)[C@H]2O)[C@H]1O[C@@H]1O[C@H](CO)[C@@H](O)[C@H](O)[C@H]1O)C3` [Reb-A, Rebaudioside A], the anti-oxidant properties [4] is reported as “substantial anti-oxidant properties”.

In the case of `C=C1C[C@@]23CC[C@H]4[C@@](C)(CCC[C@@]4(C)C(=O)O[C@@H]4O[C@H](CO)[C@@H](O)[C@H](O)[C@H]4O)[C@@H]2CC[C@]1(O[C@@H]1O[C@H](CO)[C@@H](O)[C@H](O)[C@H]1O)C3` [Rubusoside], the “times sweeter than sucrose / sugar” value [3] is given as 200 times.

For `C[C@H](CC[C@@H](O[C@@H]1O[C@H](CO)[C@@H](O)[C@H](O)[C@H]1O[C@@H]1O[C@H](CO)[C@@H](O)[C@H](O)[C@H]1O)C(C)(C)O)[C@H]1CC[C@@]2(C)[C@H]3CC=C4[C@@H](CC[C@H](O[C@@H]5O[C@H](CO[C@@H]6O[C@H](CO)[C@@H](O)[C@H](O)[C@H]6O)[C@@H](O)[C@H](O)[C@H]5O)C4(C)C)[C@]3(C)[C@H](O)C[C@]12C` [mogroside IV], the “times sweeter than sucrose / sugar” value [3] is listed as 126 times.

For `C[C@H](CC[C@@H](O[C@@H]1O[C@H](CO[C@@H]2O[C@H](CO)[C@@H](O)[C@H](O)[C@H]2O)[C@@H](O)[C@H](O)[C@H]1O[C@@H]1O[C@H](CO)[C@@H](O)[C@H](O)[C@H]1O)C(C)(C)O)[C@H]1CC[C@@]2(C)[C@@H]3CC=C4[C@@H](CC[C@H](O[C@@H]5O[C@H](CO[C@@H]6O[C@H](CO)[C@@H](O)[C@H](O)[C@H]6O)[C@@H](O)[C@H](O)[C@H]5O)C4(C)C)[C@]3(C)[C@H](O)C[C@]12C` [mogroside V], the “times sweeter than sucrose / sugar” value [3] is given as 256-344 times.

In the case of `O=S(=O)([O-])NC1CCCCC1.[Na+]` [sodium cyclamate], the “times sweeter than sucrose / sugar” value [3] is listed as “about 30 times”.

For `OC[C@H]1O[C@H](O[C@]2(CCl)O[C@H](CCl)[C@@H](O)[C@@H]2O)[C@H](O)[C@@H](O)[C@H]1Cl` [sucralose], the “times sweeter than sucrose / sugar” value [3] is listed as “about 600 times”.

For Thaumatin, the “times sweeter than sucrose / sugar” value [3] is given as “about 2000 times”.
